According to paper PMC2199305 (Environmental Health Perspectives, 2007):
Where two headings read alike, the source gives them in different places.

Assays:
[1] = molecular target: T1, GST-ERR-γ –LBD (human ERR-γ) (Homo sapiens, UniProt P62508); experiment: Competitive receptor binding assay using [3H]BPA as tracer; details: for fold weaker binding affinity for ERR-γ than bisphenol E: ratio of IC50 vs bisphenol E
T1 construct: made in house; host or cells: Escherichia coli BL21α (vector pGEX6P-1)
T1 sequence (P62508 233-457 limits assumed): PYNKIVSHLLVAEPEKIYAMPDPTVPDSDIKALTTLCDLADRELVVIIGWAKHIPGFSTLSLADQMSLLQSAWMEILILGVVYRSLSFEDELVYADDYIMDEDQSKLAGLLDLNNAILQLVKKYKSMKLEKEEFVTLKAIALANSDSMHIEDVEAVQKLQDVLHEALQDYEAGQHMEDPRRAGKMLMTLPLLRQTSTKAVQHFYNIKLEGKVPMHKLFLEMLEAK
Source text: ERR-γ –LBD was amplified from a human kidney cDNA library (Clontech Laboratories, Mountain View, CA, USA) by polymerase chain reaction (PCR) using gene-specific primers and cloned into pGEX6P-1 (Amersham Biosciences, Piscataway, NJ, USA). Glutathione S-transferase (GST)–fused receptor protein expressed in Escherichia coli BL21α was purified on an affinity column of glutathione-sepharose 4B (GE Healthcare BioSciences Co., Piscataway, NJ, USA) to obtain GST-ERR-γ –LBD.
The reaction mixtures were incubated for 2 hr at 4°C and free radioligand was removed with 1% DCC by filtration as described above. Radioactivity was determined on a liquid scintillation counter (TopCount NXT; PerkinElmer Life Sciences Tokyo, Japan). […] Each assay was performed in duplicate and repeated at least three times.

human ERR-γ = molecular target: T2, human ERR-γ (Homo sapiens, UniProt P62508); details: HeLa cells; for inhibition of the inverse agonist (deactivation) activity of 4-OHT: added along with 1.0 μM 4-OHT; for effect on constitutive basal activity of ERR-γ: compound alone
T2 sequence (P62508 1-458): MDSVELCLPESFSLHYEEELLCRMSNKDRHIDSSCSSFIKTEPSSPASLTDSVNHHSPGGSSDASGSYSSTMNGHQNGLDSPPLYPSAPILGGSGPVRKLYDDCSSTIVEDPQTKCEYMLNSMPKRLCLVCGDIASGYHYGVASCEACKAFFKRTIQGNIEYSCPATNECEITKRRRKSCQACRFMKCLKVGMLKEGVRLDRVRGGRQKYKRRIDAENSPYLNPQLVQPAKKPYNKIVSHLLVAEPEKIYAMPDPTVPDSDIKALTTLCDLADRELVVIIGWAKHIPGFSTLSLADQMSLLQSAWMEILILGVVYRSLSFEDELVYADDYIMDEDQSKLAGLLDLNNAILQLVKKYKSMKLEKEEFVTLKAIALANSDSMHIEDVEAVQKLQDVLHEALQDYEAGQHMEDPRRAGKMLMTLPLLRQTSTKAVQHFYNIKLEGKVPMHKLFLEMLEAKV
Procedure: HeLa cells were maintained in Eagle’s MEM (EMEM; Nissui, Tokyo, Japan) in the presence of 10% (vol/vol) fetal bovine serum at 37°C. For luciferase assays, HeLa cells were seeded at 5 × 10^5 cells/6-cm dish for 24 hr and then transfected with 4 μg of reporter gene (pGL3/3 × ERRE) and 3 μg of ERR-γ expression plasmids (pcDNA3/ERR-γ ) by Lipofectamine Plus reagent (Invitrogen Japan, Tokyo, Japan) according to the manufacturer’s protocol. Approximately 24 hr after transfection, cells were harvested and plated into 96-well plates at 5 × 10^4 cells/well. The cells were then treated with varying doses of chemicals diluted with 1% bovine serum albumin/phosphate-buffered saline (BSA/PBS, vol/vol). […] After 24 hr, luciferase activity was measured with the appropriate reagent using a Luciferase Assay System (Promega, Madison, WI, USA) according to the manufacturer’s instructions. […] Cells treated with 1% BSA/PBS were used as a vehicle control. Each assay was performed in triplicate and repeated at least three times.

GST-ER-α –LBD = molecular target: T3, GST-ER-α –LBD (Homo sapiens, UniProt P03372); experiment: Competitive binding assay using [3H]E2; details: for binding to ER-α (in words): [3H]E2 tracer; for ERR-γ receptor selectivity ER-α (IC50, nM)/ERR-γ (IC50, nM): ratio of IC50 values, ER-α over ERR-γ; for IC50: read-out: Binding affinity for ER-α (IC50)
T3 sequence (P03372 311-547 limits assumed): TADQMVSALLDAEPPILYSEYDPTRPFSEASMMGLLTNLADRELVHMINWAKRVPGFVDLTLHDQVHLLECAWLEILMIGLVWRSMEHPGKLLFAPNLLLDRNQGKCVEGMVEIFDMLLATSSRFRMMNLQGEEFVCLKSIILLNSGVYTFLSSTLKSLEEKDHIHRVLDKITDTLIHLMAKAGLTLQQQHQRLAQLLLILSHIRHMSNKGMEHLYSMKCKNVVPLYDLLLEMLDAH

[2] = read-out: Binding affinity for ERR-γ (IC50)

| SMILES | IC50 [1, 2] [nM] | binding to ER-α (in words) (GST-ER-α –LBD) | ERR-γ receptor selectivity ER-α (IC50, nM)/ERR-γ (IC50, nM) (GST-ER-α –LBD) | other results |
| --- | --- | --- | --- | --- |
| CCc1ccc(O)cc1 [4-Ethylphenol, 4-ethylphenol] | 289 ± 45.9 |  |  |  |
| CC(C)c1ccc(O)cc1 [4-Isopropylphenol, 4-isopropylphenol] |  |  |  | IC50 [1]: 71.1 ± 7.73 nM |
| CC/C(=C(\c1ccc(O)cc1)c1ccc(OCCN(C)C)cc1)c1ccccc1 [4-OHT, 4-hydroxytamoxifen, reference compound] |  |  |  | deactivation of ERR-γ (inverse agonist activity) (human ERR-γ; 1.0 μM): approximately 0.4 fold |
| CCC(C)(C)c1ccc(O)cc1 [4-tert-Amylphenol, 4-tert-amylphenol] | 33.2 ± 2.85 | almost completely inactive | Exclusively ERR-γ |  |
| CC(C)(C)c1ccc(O)cc1 [4-tert-Butylphenol, 4-tert-butylphenol] |  | almost completely inactive |  |  |
| CC(C)(c1ccccc1)c1ccc(O)cc1 [4-α-Cumylphenol, 2-(4-hydroxyphenyl)-2-phenylpropane] |  |  |  | IC50 (GST-ER-α –LBD): 4770 nM |
| CC(C)(c1ccc(O)cc1)c1ccc(O)cc1 [BPA, 2,2-bis(4-hydroxyphenyl)propane] |  |  |  | IC50 [1]: 9.78 ± 0.87 nM; inhibition of the binding of [3H]BPA [1]: almost completely inhibits; inhibition of the inverse agonist (deactivation) activity of 4-OHT (human ERR-γ): antagonizes or inhibits the deactivation activity of 4-OHT in a dose-dependent manner; effect on constitutive basal activity of ERR-γ (human ERR-γ): retained a high constitutive basal activity |
| Oc1ccc(C(c2ccc(O)cc2)(C(F)(F)F)C(F)(F)F)cc1 [Bisphenol AF, 2,2-bis(4-hydroxyphenyl)hexafluoropropane] | 358 ± 30.5 |  |  | inhibition of the inverse agonist (deactivation) activity of 4-OHT (human ERR-γ): inhibited the inverse agonist activity of 4-OHT; effect on constitutive basal activity of ERR-γ (human ERR-γ): retain a high constitutive basal activity |
| CC(c1ccccc1)(c1ccc(O)cc1)c1ccc(O)cc1 [Bisphenol AP, 4,4′-(1-phenylethylidene)bisphenol] | 123 ± 15.1 |  |  | fold weaker binding affinity for ERR-γ than bisphenol E [1]: approximately 15 fold; IC50 (GST-ER-α –LBD): 361 ± 22.6 nM |
| CCC(C)(c1ccc(O)cc1)c1ccc(O)cc1 [Bisphenol B, 2,2-bis(4-hydroxyphenyl)butane] | 26.3 ± 2.65 |  | about 9.5 | IC50 (GST-ER-α –LBD): 246 ± 29.7 nM |
| CC(c1ccc(O)cc1)c1ccc(O)cc1 [Bisphenol E, 2,2-bis(4-hydroxyphenyl)ethane] | 8.14 ± 0.83 | almost completely inactive | Exclusively ERR-γ | inhibition of the inverse agonist (deactivation) activity of 4-OHT (human ERR-γ): inhibited the inverse agonist activity of 4-OHT; effect on constitutive basal activity of ERR-γ (human ERR-γ): retain a high constitutive basal activity |
| Oc1ccc(Cc2ccc(O)cc2)cc1 [Bisphenol F, bis(4-hydroxyphenyl)methane] | 131 ± 17.9 | almost completely inactive | Exclusively ERR-γ | fold weaker binding affinity for ERR-γ than bisphenol E [1]: approximately 16 fold |
